Our source for the Drug metabolism and Retention_time values is ChEMBL document CHEMBL3525902, “In vitro metabolism of oxymetazoline: evidence for bioactivation to a reactive metabolite” (Drug Metab Dispos, 2011).

The target of series [1] is T1, Cytochrome P450 2C19 (Homo sapiens, UniProt P33261). Briefly: Activity of human recombinant CYP2C19 assessed as compound formation from 50 uM oxymetazoline in presence of NADPH by LC-MS/MS method. Format: ADME. As to conditions: recombinant enzyme.
Series [2] has as its system Liver. Briefly: Drug level in NADPH supplemented human liver S9 fraction treated with 50 uM oxymetazoline assessed as compound formation after 1 hr by LC-MS/MS method. The series is classed as ADME, subcellular. As to conditions: s9, 1 h.
In series [3] the test system is Liver. Briefly: Drug level in NADPH supplemented rat liver S9 fraction treated with 50 uM oxymetazoline assessed as compound formation after 1 hr by LC-MS/MS method. The series is classed as ADME, subcellular. As to conditions: s9, 1 h.
Series [4] is described as follows: Drug level in NADPH supplemented rat liver S9 fraction treated with 50 uM oxymetazoline assessed as compound-glutathione conjugate formation in presence of glutathione by LC-MS/MS method. The series is classed as ADME, subcellular.
Series [5] in a line: Retention time of the compound at 50 uM by LC-MS/MS method. Format: physicochemical.
The nature of series [6]: Drug level in NADPH supplemented rabbit liver S9 fraction treated with 50 uM oxymetazoline assessed as compound-glutathione conjugate formation in presence of glutathione by LC-MS/MS method. The series is classed as ADME, subcellular, Oryctolagus cuniculus.
Series [7] is described as follows: Drug level in NADPH supplemented rabbit liver microsomes fraction treated with 50 uM oxymetazoline assessed as compound formation after 1 hr by LC-MS/MS method. The series is classed as ADME, Oryctolagus cuniculus. For orientation: Liver microsomes are a subcellular fraction often used to study metabolism.
Series [8] deals with Liver microsome. Description: Drug level in NADPH supplemented human liver microsomes fraction treated with 50 uM oxymetazoline assessed as compound formation after 1 hr by LC-MS/MS method. The series is classed as ADME.
Series [9] in a line: Drug level in NADPH supplemented human liver S9 fraction treated with 50 uM oxymetazoline assessed as compound-glutathione conjugate formation in presence of glutathione by LC-MS/MS method. The series is classed as ADME, subcellular.
Series [10] is described as follows: Drug level in NADPH supplemented rabbit liver S9 fraction treated with 50 uM oxymetazoline assessed as compound formation after 1 hr by LC-MS/MS method. The series is classed as ADME, subcellular, Oryctolagus cuniculus. The following applies: s9, 1 h.
In series [11] the test system is Liver microsome. Description: Drug level in NADPH supplemented rat liver microsomes fraction treated with 50 uM oxymetazoline assessed as compound formation after 1 hr by LC-MS/MS method. Format: ADME.
Series [12] concerns the target T1, Cytochrome P450 2C19. Description: Activity of human recombinant CYP2C19 assessed as compound formation from 50 uM oxymetazoline in presence of NADPH and glutathione by LC-MS/MS method. The series is classed as ADME. As to conditions: recombinant enzyme.
Series [13] can be described thus: Drug level in NADPH supplemented rabbit liver S9 fraction treated with 50 uM oxymetazoline assessed as compound-N-acetyl cysteine conjugate formation in presence of N-acetyl cysteine by LC-MS/MS method. The series is classed as ADME, subcellular, Oryctolagus cuniculus.

T1 sequence (P33261 whole entry): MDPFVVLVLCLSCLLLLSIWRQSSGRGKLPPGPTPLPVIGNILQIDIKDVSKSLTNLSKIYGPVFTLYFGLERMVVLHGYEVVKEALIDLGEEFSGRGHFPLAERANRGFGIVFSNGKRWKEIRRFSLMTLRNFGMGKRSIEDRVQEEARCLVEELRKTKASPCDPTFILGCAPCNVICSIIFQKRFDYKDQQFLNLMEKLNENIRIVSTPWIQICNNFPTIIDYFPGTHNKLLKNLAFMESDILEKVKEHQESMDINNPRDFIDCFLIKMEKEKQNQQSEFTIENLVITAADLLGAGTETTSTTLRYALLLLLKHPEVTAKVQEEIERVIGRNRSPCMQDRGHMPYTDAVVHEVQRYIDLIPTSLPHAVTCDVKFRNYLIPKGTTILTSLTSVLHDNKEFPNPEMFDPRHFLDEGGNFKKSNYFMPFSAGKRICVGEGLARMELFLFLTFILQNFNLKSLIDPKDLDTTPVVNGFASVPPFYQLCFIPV

`Cc1cc(C(C)(C)CO)c(O)c(C)c1CC1=NCCN1`: the Drug metabolism result in [1], in series [2], in series [3], in [4], in series [6] and in [7] was “metabolite_detected” each time. Besides, the Drug metabolism result in series [8], in [9], in series [10] and in [11] was “metabolite_detected” each time. The same compound had a Retention_time in series [5] of 4.95 min.
For `Cc1c(O)c(C(C)(C)C)cc(CSC[C@H](NC(=O)CC[C@H](N)C(=O)O)C(=O)NCC(=O)O)c1Cc1ncc[nH]1`, the Drug metabolism entry in [2], in series [12], in [3], in series [4], in series [6] and in series [9] was “metabolite_detected” in each case. The Drug metabolism result in series [10] is “metabolite_detected”. In series [5], the Retention_time was 4.65 min.
Turning to `Cc1c(O)c(C(C)(C)C)cc(CSC[C@H](NC(=O)CC[C@H](N)C(=O)O)C(=O)NCC(=O)O)c1CC1=NCCN1`, the Drug metabolism result in series [2], in [12], in series [3], in [4], in [6] and in series [9] was “metabolite_detected” in each case. Moreover, in series [10], the Drug metabolism entry is “metabolite_detected”. Moreover, the Retention_time in [5] is recorded as 4.22 min.
`Cc1c(O)c(C(C)(C)C)cc(CSC[C@H](N)C(=O)O)c1Cc1ncc[nH]1` displayed a Retention_time in [5] of 3.48 min. The Drug metabolism result in series [10] is “metabolite_detected”.
Regarding `Cc1c(O)c(C(C)(C)CO)cc(CSC[C@H](NC(=O)CC[C@H](N)C(=O)O)C(=O)NCC(=O)O)c1CC1=NCCN1`, the Retention_time in [5] is 3.86 min. Further, in series [10], the Drug metabolism result is on record as “metabolite_detected”.
Take `Cc1c(O)c(C(C)(C)C)cc(CSC[C@H](N)C(=O)O)c1CC1=NCCN1`: the Drug metabolism result in [2] and in series [10] was “metabolite_detected” each time. Moreover, in [5], the Retention_time worked out at 3.17 min.
`Cc1cc(C(C)(C)C)c(O)c(C)c1Cc1ncc[nH]1`: the Drug metabolism entry in series [1], in [2], in series [3], in series [13], in [7] and in series [8] was “metabolite_detected” throughout. Moreover, the Drug metabolism result in series [10] and in series [11] was “metabolite_detected” each time. Further, the Retention_time in [5] was 12.36 min.
Turning to `Cc1cc(C(C)(C)CO)c(O)c(C)c1Cc1ncc[nH]1`, the Drug metabolism result in [1], in series [2], in [3], in series [4], in [6] and in series [7] was “metabolite_detected” throughout. In addition, the Drug metabolism entry in series [8], in series [9], in series [10] and in series [11] was “metabolite_detected” in each case. The Retention_time in series [5] turned out to be 5.64 min.
`Cc1c(O)c(C(C)(C)CO)cc(CSC[C@H](NC(=O)CC[C@H](N)C(=O)O)C(=O)NCC(=O)O)c1Cc1ncc[nH]1`: in [5], the Retention_time amounted to 6.34 min. Further, the Drug metabolism result in [10] is on record as “metabolite_detected”.
Take `CC(=O)N[C@@H](CSCc1cc(C(C)(C)C)c(O)c(C)c1CC1=NCCN1)C(=O)O`: the Drug metabolism result in series [13] is listed as “metabolite_detected”.
